Laboratory results from BindingDB's records for doi:10.1124/jpet.102.038075 (Nih, 2002).
Several values for one entry are separate records, joined by “and”; a condition that tells them apart may be missing. Identical values can stand only once. Bridge positions count the residues as written; N and C are the ends. Square brackets hold non-standard residues; d marks the D form. Peptide text beside a SMILES is read from it. Nle = CCCC[C@H](N)C(=O)O

Legend:
[1] = biological target: T1, Vasoactive intestinal polypeptide receptor 2 (Homo sapiens, UniProt P41587)
T1 sequence (P41587 whole entry): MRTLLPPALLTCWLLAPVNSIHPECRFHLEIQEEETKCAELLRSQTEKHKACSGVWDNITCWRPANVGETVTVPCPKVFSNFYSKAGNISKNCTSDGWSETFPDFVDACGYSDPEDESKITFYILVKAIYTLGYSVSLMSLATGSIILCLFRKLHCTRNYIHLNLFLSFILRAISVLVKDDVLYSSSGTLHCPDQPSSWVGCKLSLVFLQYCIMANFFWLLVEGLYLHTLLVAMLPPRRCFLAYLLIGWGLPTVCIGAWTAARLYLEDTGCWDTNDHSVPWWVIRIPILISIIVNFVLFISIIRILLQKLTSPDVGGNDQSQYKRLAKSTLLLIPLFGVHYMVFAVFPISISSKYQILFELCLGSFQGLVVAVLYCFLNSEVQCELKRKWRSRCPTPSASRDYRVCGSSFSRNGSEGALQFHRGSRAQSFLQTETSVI

[2] = biological target: T2, Vasoactive intestinal polypeptide receptor 2 (Rattus norvegicus, UniProt P35000)
T2 sequence (P35000 whole entry): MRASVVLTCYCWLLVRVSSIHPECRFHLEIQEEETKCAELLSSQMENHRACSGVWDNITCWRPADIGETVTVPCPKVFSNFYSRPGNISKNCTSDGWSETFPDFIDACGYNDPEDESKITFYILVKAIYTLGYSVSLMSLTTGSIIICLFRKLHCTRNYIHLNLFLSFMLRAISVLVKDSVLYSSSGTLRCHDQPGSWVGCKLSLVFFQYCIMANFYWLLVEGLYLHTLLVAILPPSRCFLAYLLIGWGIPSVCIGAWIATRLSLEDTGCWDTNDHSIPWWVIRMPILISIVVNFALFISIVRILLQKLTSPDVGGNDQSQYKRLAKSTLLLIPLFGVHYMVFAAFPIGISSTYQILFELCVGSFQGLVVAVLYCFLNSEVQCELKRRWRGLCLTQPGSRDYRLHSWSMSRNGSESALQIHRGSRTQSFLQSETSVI

[3] = biological target: T3, Vasoactive intestinal polypeptide receptor 1 (Homo sapiens, UniProt P32241)
T3 sequence (P32241 whole entry): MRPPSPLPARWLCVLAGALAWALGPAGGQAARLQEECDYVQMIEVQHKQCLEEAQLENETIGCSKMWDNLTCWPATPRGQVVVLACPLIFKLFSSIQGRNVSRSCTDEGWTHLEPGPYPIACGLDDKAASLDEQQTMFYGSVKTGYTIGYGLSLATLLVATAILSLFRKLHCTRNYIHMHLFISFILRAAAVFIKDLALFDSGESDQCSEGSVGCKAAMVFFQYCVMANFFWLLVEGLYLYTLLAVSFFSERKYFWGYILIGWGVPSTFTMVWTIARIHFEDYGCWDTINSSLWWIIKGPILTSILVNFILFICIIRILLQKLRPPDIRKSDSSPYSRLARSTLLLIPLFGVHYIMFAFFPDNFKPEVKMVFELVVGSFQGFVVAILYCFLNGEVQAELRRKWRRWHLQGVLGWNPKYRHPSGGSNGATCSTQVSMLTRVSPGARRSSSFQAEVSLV

H-HSDAVFTDNYTRARKQMAVKKYLNSILN-NH2 [VIP Ala13]
Ki [1]: 48.9 nM and 81.3 nM and 52.3 nM

H-HSDAVFTANYTRLRKQMAVKKYLNSILN-NH2 [VIP Ala8]
Ki [1]: 4.4 nM and 2.7 nM and 13.3 nM

H-HSDAAFTDNYTRLRKQMAVKKYLNSILN-NH2 [VIP Ala5]
Ki [2]: 13.2 nM and 23 nM
Ki [1]: 12.2 nM and 48.1 nM and 120 nM

H-HADAVFTDNYTRLRKQMAVKKYLNSILN-NH2 [VIP Ala2]
Ki [1]: 3.4 nM and 3.5 nM and 2.1 nM

H-HSDAVFTDNYTRLAKQMAVKKYLNSILN-NH2 [VIP Ala14]
Ki [1]: 47.9 nM and 110 nM and 166 nM

CC[C@H](C)[C@H](NC(=O)[C@H](CO)NC(=O)[C@H](CC(N)=O)NC(=O)[C@H](CC(C)C)NC(=O)[C@H](Cc1ccc(O)cc1)NC(=O)[C@H](CCCCN)NC(=O)[C@H](CCCCN)NC(=O)[C@@H](NC(=O)[C@H](C)NC(=O)[C@H](CCSC)NC(=O)[C@H](CCC(N)=O)NC(=O)[C@H](CCCCN)NC(=O)[C@H](CCCN=C(N)N)NC(=O)[C@H](CC(C)C)NC(=O)[C@H](CCCN=C(N)N)NC(=O)[C@@H](NC(=O)[C@H](Cc1ccc(O)cc1)NC(=O)[C@H](CC(N)=O)NC(=O)[C@H](CC(=O)O)NC(=O)[C@H](C)NC(=O)[C@H](Cc1ccccc1)NC(=O)[C@@H](NC(=O)[C@H](C)NC(=O)[C@H](CC(=O)O)NC(=O)[C@H](CO)NC(=O)[C@@H](N)Cc1cnc[nH]1)C(C)C)[C@@H](C)O)C(C)C)C(=O)N[C@@H](CC(C)C)C(=O)N[C@@H](CC(N)=O)C(N)=O [VIP Ala7]
Ki [2]: 138 nM and 631 nM
Ki [1]: 1700 nM and 1120 nM and 3000 nM

H-HSDAVFTDNYTALRKQMAVKKYLNSILN-NH2 [VIP Ala12]
Ki [2]: 25.1 nM and 251 nM
Ki [1]: 331 nM and 676 nM and 288 nM

H-ASDAVFTDNYTRLRKQMAVKKYLNSILN-NH2 [VIP Ala1]
Ki [2]: 75.7 nM and 479 nM
Ki [1]: 209 nM and 251 nM and 559 nM

H-HSDAVFTDNYTRLRKQMAVKKALNSILN-NH2 [VIP Ala22]
Ki [2]: 759 nM and 3000 nM
Ki [1]: 3000 nM

H-HSDAVFTDNYTRLRKQMAVKKYLNSALN-NH2 [VIP Ala26]
Ki [1]: 9.1 nM and 11.8 nM and 15.2 nM and 50.1 nM and 49 nM and 27.9 nM

H-HSDAVFTDNYTRLRKQMAAKKYLNSILN-NH2 [VIP Ala19]
Ki [2]: 0.43 nM and 3.4 nM
Ki [1]: 2.4 nM and 2.6 nM and 5 nM

H-HSDAVFTDNYTRLRKQMAVKKYANSILN-NH2 [VIP Ala23]
Ki [2]: 110 nM and 972 nM
Ki [1]: 1700 nM and 2820 nM and 2710 nM

H-HSDAVFTDNYTRLRKQMAVAKYLNSILN-NH2 [VIP Ala20]
Ki [1]: 10 nM and 12.6 nM and 21.9 nM

H-HSDAVFTDNATRLRKQMAVKKYLNSILN-NH2 [VIP Ala10]
Ki [2]: 724 nM and 2660 nM
Ki [1]: 3000 nM

H-HSDAVFTDNYTRLRKQMAVKKYLNSILA-NH2 [VIP Ala28]
Ki [1]: 34.7 nM and 21 nM and 27.2 nM

H-HSDAVFTDNYTRLRKQMAVKKYLNSIAN-NH2 [VIP Ala27]
Ki [1]: 19.5 nM and 79.4 nM and 89.1 nM

H-HSDAVFTDNYTRLRKQAAVKKYLNSILN-NH2 [VIP Ala17]
Ki [2]: 2.3 nM and 5 nM

H-HSAAVFTDNYTRLRKQMAVKKYLNSILN-NH2 [VIP Ala3]
Ki [2]: 138 nM and 546 nM
Ki [1]: 977 nM and 1150 nM and 2420 nM

H-HSDAVFTDNYTRLRKQMAVKAYLNSILN-NH2 [VIP Ala21]
Ki [2]: 1.3 nM and 12.4 nM
Ki [1]: 8.1 nM and 17 nM and 12.6 nM

H-HSDAVFTDNYTRLRAQMAVKKYLNSILN-NH2 [VIP Ala15]
Ki [2]: 1.9 nM and 16.6 nM
Ki [1]: 19.1 nM and 40.7 nM and 38.4 nM

H-HSDAVFTDNYTRLRKQMAVKKYLASILN-NH2 [VIP Ala24]
Ki [2]: 0.4 nM and 3.2 nM
Ki [1]: 4.1 nM and 14.1 nM and 18.6 nM

H-HSDAVFTNSYRKVLKRLSARKLLQDIL-NH2 [NSC_0]
Ki [1]: 3000 nM
Ki [3]: 1.7 nM and 7.7 nM and 8.9 nM

H-HSDAVFTDAYTRLRKQMAVKKYLNSILN-NH2 [VIP Ala9]
Ki [1]: 4.3 nM and 3.2 nM and 6 nM

CCCC[C@H](NC(=O)[C@H](CCC(N)=O)NC(=O)[C@H](CCCCN)NC(=O)[C@H](CCCNC(=N)N)NC(=O)[C@H](CC(C)C)NC(=O)[C@H](CCCCN)NC(=O)[C@@H](NC(=O)[C@H](Cc1ccc(O)cc1)NC(=O)[C@H](CC(N)=O)NC(=O)[C@H](CCC(=O)O)NC(=O)[C@@H](NC(=O)[C@H](Cc1ccccc1)NC(=O)[C@@H](NC(=O)[C@H](C)NC(=O)[C@H](CC(=O)O)NC(=O)[C@H](CO)NC(=O)[C@H](Cc1c[nH]cn1)NC(C)=O)C(C)C)[C@@H](C)O)[C@@H](C)O)C(=O)N[C@@H](C)C(=O)N[C@@H](C)C(=O)N[C@@H](CCCCN)C(=O)N[C@H]1CCCCNC(=O)C[C@@H](C(=O)N[C@@H](CC(C)C)C(=O)N[C@@H](CCCCN)C(=O)N[C@@H](CCCCN)C(=O)NCC(=O)NCC(=O)N[C@H](C(N)=O)[C@@H](C)O)NC(=O)[C@H](CC(N)=O)NC(=O)[C@H](CC(C)C)NC(=O)[C@H](Cc2ccc(O)cc2)NC1=O [Ac-L-His-L-Ser-L-Asp-L-Ala-L-Val-L-Phe-L-Thr-L-Glu-L-Asn-L-Tyr-L-Thr-L-Lys-L-Leu-L-Arg-L-Lys-L-Gln-L-Nle-L-Ala-L-Ala-L-Lys-L-Lys(1)-L-Tyr-L-Leu-L-Asn-L-Asp(1)-L-Leu-L-Lys-L-Lys-Gly-Gly-L-Thr-NH2] (Ac-HSDAVFTENYTKLRKQ[Nle]AAKKYLNDLKKGGT-NH2; lactam 21-25)
Ki [1]: 2.1 nM and 15.9 nM and 3.9 nM
Ki [3]: 1200 nM and 1020 nM
